The values that follow come from patent US7173025B1, “Aminoheterocyclic derivatives as antithrombotic or anticoagulant agents” (Zeneca Limited, priority 1996, dated 2007).

Structures can show the parent of a compound that is named as a salt.

Sequence of human Factor Xa (P00742 235-488 limits assumed): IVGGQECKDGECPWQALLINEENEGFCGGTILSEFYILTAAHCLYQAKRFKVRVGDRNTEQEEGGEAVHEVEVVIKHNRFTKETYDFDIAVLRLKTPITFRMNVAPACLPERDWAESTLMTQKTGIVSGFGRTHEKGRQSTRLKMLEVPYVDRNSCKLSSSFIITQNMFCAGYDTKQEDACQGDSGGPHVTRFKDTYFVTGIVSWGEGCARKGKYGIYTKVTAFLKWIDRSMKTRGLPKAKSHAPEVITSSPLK
Sequence of human Factor Xa (P00742 41-179 partner limits assumed): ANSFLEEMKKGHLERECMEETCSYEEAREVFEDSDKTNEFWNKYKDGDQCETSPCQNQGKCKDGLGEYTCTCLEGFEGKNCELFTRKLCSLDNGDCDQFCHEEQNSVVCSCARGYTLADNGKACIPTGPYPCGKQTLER

For one data set, the system named is blood plasma. Kind of data set: Measurement of Anticoagulant Activity (in vitro prothrombin time test). As to conditions: test c). On the set-up: species or system human, rat or rabbit. Here is the method:
c) Measurement of Anticoagulant Activity
An in vitro assay whereby human, rat or rabbit venous blood was collected and added directly to a sodium citrate solution (3.2 g/100 ml, 9 parts blood to 1 part citrate solution). Blood plasma was prepared by centrifugation (1000 g, 15 minutes) and stored at 2-4° C. Conventional prothrombin time (PT) tests were carried out in the presence of various concentrations of a test compound and the concentration of test compound required to double the clotting time, hereinafter referred to as CT2, was determined. In the PT test, the test compound and blood plasma were incubated at 37° C. for 10 minutes. Tissue thromboplastin with calcium (Sigma Limited, Poole, England) was added and fibrin formation and the time required for a clot to form were determined.
For the compound `O=C(c1ccc(S(=O)(=O)c2ccc3cc(Cl)ccc3c2)cc1)N1CCN(c2ccncc2)CC1` [Example 1, 1-[4-(6-chloronaphth-2-ylsulphonyl)benzoyl]-4-(4-pyridyl)piperazine], the “CT2 (PT), concentration of test compound required to double the clotting time” value is 5 µM.

The target of another data set is human Factor Xa (Homo sapiens, UniProt P00742). The data set can be described thus: Measurement of Factor Xa Inhibition (chromogenic substrate S-2765). Format: biochemical. The following applies: test a); read-out: IC50 against Factor Xa. The procedure:
a) Measurement of Factor Xa Inhibition
An in vitro assay system was carried out based on the method of Kettner et al., J. Biol. Chem., 1990, 265, 18289-18297, whereby various concentrations of a test compound were dissolved in DMSO and diluted in a pH7.5 buffer containing 0.5% of a polyethylene glycol (PEG 6000) and incubated at 37° C. with human Factor Xa (0.001 Units/ml, 0.3 ml) for 15 minutes. The chromogenic substrate S-2765 (KabiVitum AB, 20 μM) was added and the mixture was incubated at 37° C. for 20 minutes whilst the absorbance at 405 nm was measured. The maximum reaction velocity (Vmax) was determined and compared with that of a control sample containing no test compound. Inhibitor potency was expressed as an IC50 value.
For `O=C(c1ccc(S(=O)(=O)c2ccc3cc(Cl)ccc3c2)cc1)N1CCN(c2ccncc2)CC1` [Example 1, 1-[4-(6-chloronaphth-2-ylsulphonyl)benzoyl]-4-(4-pyridyl)piperazine], the IC50 (as a rule, the concentration that gives 50% inhibition) worked out at 0.013 µM.

A further data set has as its target human thrombin (Homo sapiens, UniProt P00734). Kind of data set: Measurement of Thrombin Inhibition (chromogenic substrate S-2238). The following applies: test b); read-out: IC50 against thrombin. It counts as biochemical. The procedure: b) Measurement of Thrombin Inhibition
The procedure of method a) was repeated except that human thrombin (0.005 Units/ml) and the chromogenic substrate S-2238 (KabiVitum AB, 7 μM) were employed.
For the compound `O=C(c1ccc(S(=O)(=O)c2ccc3cc(Cl)ccc3c2)cc1)N1CCN(c2ccncc2)CC1` [Example 1, 1-[4-(6-chloronaphth-2-ylsulphonyl)benzoyl]-4-(4-pyridyl)piperazine], the IC50 is > 40 µM.

Tested on in the next data set: not given
Test: not given
Conditions: not given
Turning to `O=S(=O)(Nc1ccc(OC2CCN(c3ccncc3)CC2)cc1)c1ccc(-c2ccc(Br)cc2)cc1` (as salt: hydrochloride) [Example 4, 4′-bromo-N-{4-[1-(4-pyridyl)piperidin-4-yloxy]phenyl}-4-biphenylylsulphonamide], the melting point – broadly, the temperature, or range, at which the solid turns liquid – was 302 to 304 °C.
As for `Cc1ccc(S(=O)(=O)Nc2ccc(OC3CCN(c4ccncc4)CC3)cc2)cc1` (as salt: hydrochloride) [Example 7, N-{4-[1-(4-pyridyl)piperidin-4-yloxy]phenyl}-4-toluenesulphonamide], the melting point was in the range of 270 to 272 °C.
Same read-out and setting: as for `O=S(=O)(Nc1ccc(OCC2CCN(c3ccncc3)CC2)cc1)c1ccc(-c2ccc(Br)cc2)cc1` (as salt: hydrochloride) [Example 11, 4′-bromo-N-{4-[1-(4-pyridyl)piperidin-4-ylmethoxy]phenyl}-4-biphenylylsulphonamide], the figure is 293 to 295 °C; as for `O=S(=O)(Nc1ccc(OCC2CCN(c3ccncc3)CC2)cc1)c1ccc2cc(Br)ccc2c1` (as salt: hydrochloride) [Example 12, 6-bromo-N-{4-[1-(4-pyridyl)piperidin-4-ylmethoxy]-phenyl}-2-naphthalenesulphonamide], 167 to 169 °C.
The same measure, in the same setting: the same measure for `O=S(=O)(/C=C/c1ccc(Cl)cc1)Nc1ccc(OCC2CCN(c3ccncc3)CC2)cc1` (as salt: hydrochloride) [Example 13, 4-chloro-N-{4-[1-(4-pyridyl)piperidin-4-ylmethoxy]phenyl}-(E)-styrylsulphonamide]: 220 to 223 °C; for `O=S(=O)(Nc1cccc(OC2CCN(c3ccncc3)CC2)c1)c1ccc2cc(Br)ccc2c1` (as salt: hydrochloride) [Example 16, 6-bromo-N-{3-[1-(4-pyridyl)piperidin-4-yloxy]phenyl}-2-naphthalenesulphonamide]: 298 to 300 °C; for `O=S(=O)(/C=C/c1ccc(Cl)cc1)Nc1cccc(OC2CCN(c3ccncc3)CC2)c1` (as salt: hydrochloride) [Example 21, 4-chloro-N -{3-[1-(4-pyridyl)piperidin-4-yloxy]phenyl}-(E)-styrylsulphonamide]: 147 to 150 °C.
The same measure, in the same setting: as for `O=S(=O)(c1ccc(S(=O)(=O)N2CCN(c3ccncc3)CC2)cc1)c1ccc2cc(Br)ccc2c1` (as salt: trifluoroacetate) [Example 25, 4-[4-(6-bromonaphth-2-ylsulphonyl)phenylsulphonyl]-1-(4-pyridyl)piperazine], the figure is 236 to 238 °C.
Compound `O=C(c1ccc(S(=O)(=O)c2ccc3cc(Cl)ccc3c2)cc1)N1CCN(c2ccncc2)CC1` [Example 1, 1-[4-(6-chloronaphth-2-ylsulphonyl)benzoyl]-4-(4-pyridyl)piperazine] gave a melting point of 267 to 269 °C.
The same measure, in the same setting: as for `Cc1ccc(S(=O)(=O)N(c2ccc(OC3CCN(c4ccncc4)CC3)cc2)S(=O)(=O)c2ccc(C)cc2)cc1` [Example 8, N-{4-[1-(4-pyridyl)piperidin-4-yloxy]phenyl}-N-(4-tolylsulphonyl)-4-toluenesulphonamide], the figure is 196 to 198 °C; as for `O=S(=O)(c1ccc(-c2ccc(Br)cc2)cc1)N(c1ccc(OCC2CCN(c3ccncc3)CC2)cc1)S(=O)(=O)c1ccc(-c2ccc(Br)cc2)cc1` [Example 14, 4′-bromo-N-(4′-bromo-4-biphenylylsulphonyl)-N-{4-[1-(4-pyridyl)piperidin-4-ylmethoxy]phenyl}-4-biphenylylsulphonamide], 136 to 140 °C; as for `O=S(=O)(c1ccc2cc(Br)ccc2c1)N(c1ccc(OCC2CCN(c3ccncc3)CC2)cc1)S(=O)(=O)c1ccc2cc(Br)ccc2c1` [Example 15, 6-bromo-N-(6-bromonaphth-2-ylsulphonyl)-N-{4-[1-(4-pyridyl)piperidin-4-ylmethoxy]phenyl}-2-naphthalenesulphonamide], 246 to 252 °C.
On the same count and under the same terms, as for `O=S(=O)(Nc1ccccc1OCC1CCN(c2ccncc2)CC1)c1ccc2cc(Br)ccc2c1` [Example 20, 6-bromo-N-{2-[1-(4-pyridyl)piperidin-4-ylmethoxy]phenyl}-2-naphthalenesulphonamide], the figure is 197 to 200 °C; as for `O=S(=O)(c1ccc(OC2CCN(c3ccncc3)CC2)cc1)c1ccc2cc(Br)ccc2c1` [Example 22, 4-[4-(6-bromonaphth-2-ylsulphonyl)phenoxy]-1-(4-pyridyl)piperidine], 180 to 183 °C; as for `O=C(c1ccc(Sc2ccc3cc(Br)ccc3c2)cc1)N1CCN(c2ccncc2)CC1` [Example 27, 1-[4-(6-bromonaphth-2-ylthio)benzoyl]-4-(4-pyridyl)piperazine], 210 to 213 °C.
